Patent publication US8846658B2, “Oxazine derivatives and their use in the treatment of neurological disorders” (Novartis AG, priority 2009, dated 2014)
Counter-ions that a name gives are not always drawn.

Experiment: Test 4: Inhibition of cellular release of amyloid peptide 1-40
Type: cell-based, Chinese hamster
Settings: Cricetulus griseus; Test 4, CHO cells transfected with APP, 24 hours with test compound, amyloid peptide 1-40 in supernatant; read-out: Bace IC50
Protocol: Test 4: Inhibition of Cellular Release of Amyloid Peptide 1-40
Chinese hamster ovary cells are transfected with the gene for amyloid precursor protein. The cells are plated at a density of 8000 cells/well into 96-well microtiter plates and cultivated for 24 hours in DMEM cell culture medium containing 10% FCS. The test compound is added to the cells at various concentrations, and the cells are cultivated for 24 hours in the presence of the test compound. The supernatants are collected, and the concentration of amyloid peptide 1-40 is determined using state of the art immunoassay techniques, for example sandwich ELISA, homogenous time-resolved fluorescence (HTRF) immunoassay, or electro-chemiluminescence immunoassay.

SMILES | IC50 [nM]
C[C@@]1(c2cc(NC(=O)c3ncc(Br)cn3)ccc2F)CO[C@@](C)(C(F)(F)F)C(N)=N1 [Example 71, 5-Bromo-pyrimidine-2-carboxylic acid [3-((3R,6R)-6-amino-3,6-dimethyl-6-trifluoromethyl-3,6-dihydro-2H-[1,4]oxazin-3-yl)-4-fluoro-phenyl]-amide hydrochloride] | 4
CC#CCOc1cnc(C(=O)Nc2ccc(F)c([C@]3(C(F)F)COCC(N)=N3)c2)cn1 [Example 164] | 1
Cc1cc(Br)cnc1C(=O)Nc1ccc(F)c(C2(C)COCC(N)=N2)c1 (stereo not shown) [Example 64] | 4
Cc1cc(C#N)cnc1C(=O)Nc1ccc(F)c([C@]2(C(F)F)COCC(N)=N2)c1 [Example 144, 5-Cyano-3-methyl-pyridine-2-carboxylic acid [3-((R)-5-amino-3-difluoromethyl-3,6-dihydro-2H-[1,4]oxazin-3-yl)-4-fluoro-phenyl]-amide] | 6
N#Cc1ccc(C(=O)Nc2ccc(F)c([C@]3(C(F)F)COCC(N)=N3)c2)nc1 [Example 112, 5-Cyano-pyridine-2-carboxylic acid [3-((R)-5-amino-3-difluoromethyl-3,6-dihydro-2H-[1,4]oxazin-3-yl)-4-fluoro-phenyl]-amide hydrochloride] | 7

More lines, in order of falling IC50, values ahead:

IC50 [nM] | SMILES
100 | NC1=NC(c2cc(NC(=O)c3ccc(Br)cn3)ccc2F)(C(F)(F)F)CCOC1 (stereo not shown) [Example 99, 5-Bromo-pyridine-2-carboxylic acid [3-(3-amino-5-trifluoromethyl-2,5,6,7-tetrahydro-[1,4]oxazepin-5-yl)-4-fluoro-phenyl]-amide hydrochloride]
17 | C[C@@]1(c2cccc(NC(=O)c3ccc(Br)cn3)c2)COCC(N)=N1 [Example 3, 5-Bromo-pyridine-2-carboxylic acid [3-((R)-5-amino-3-methyl-3,6-dihydro-2H-[1,4]oxazin-3-yl)-phenyl]-amide hydrochloride]
8 | [2H]c1nc(C(=O)Nc2ccc(F)c([C@]3(C(F)F)COCC(N)=N3)c2)c(C([2H])([2H])[2H])c([2H])c1C#N [Example 147, 5-Cyano-4,6-dideutero-3-trideuteromethyl-pyridine-2-carboxylic acid [3-((R)-5-amino-3-difluoromethyl-3,6-dihydro-2H-[1,4]oxazin-3-yl)-4-fluoro-phenyl]-amide]
4 | Cl.[2H]c1nc(C(=O)Nc2ccc(F)c([C@]3(C(F)F)COCC(N)=N3)c2)c(C([2H])([2H])[2H])c([2H])c1Br [Example 116, 5-Bromo-4,6-dideutero-3-trideuteromethyl-pyridine-2-carboxylic acid [3-((R)-5-amino-3-difluoromethyl-3,6-dihydro-2H-[1,4]oxazin-3-yl)-4-fluoro-phenyl]-amide hydrochloride]
4 | COc1cnc(C(=O)Nc2ccc(F)c([C@]3(C(F)F)COCC(N)=N3)c2)c(N)n1 [Example 175]
